Results taken from patent US9421209B2, “Kinase modulators” (Rhizen Pharmaceuticals SA, priority 2009, dated 2016).
Where two headings read alike, the source gives them in different places.

Experiments:
[1] = molecular target: P110 δ/Pi3K δ (Homo sapiens, UniProt O00329); experiment: Fluorescent (HTRF) determination of PI3K enzyme activity, δ isoform; format: biochemical; parameters: inhibition: dose or concentration left out as unconfirmed
In short: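 HTRF kit detecting PIP3 formed from PIP2 by human PI3Kδ, at room temperature. Reaction started with 400 μM ATP (addition concentration) for 30 min, then stopped, and detection mix incubated 6–18 h in the dark. Percent inhibition taken against blank and enzyme controls, and IC50 fitted.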

[2] = molecular target: P110α (Homo sapiens, UniProt P42336); experiment: Fluorescent (HTRF) determination of PI3K enzyme activity, α isoform; format: biochemical
Source text: (§1) Assay 1: Fluorescent determination of PI3Kinase Kinase enzyme activity
(§2) Phosphoinositide 3 kinases (PI3K) belong to a class of lipid kinases that play a critical role in the regulation of several key cellular processes. The PI3K are capable of phosphorylating the 3-hydroxy position of phosphoinositols thereby generating second messengers involved in downstream signalling events. The homogenous time resolved fluorescence (HTRF) assay allows detection of 3,4,5-triphosphate (PIP3) formed as a result of phosphorylation of phosphotidylinositol 4,5-biphosphate (PIP2) by PI3K isoforms such as α, β, γ or δ.
(§3) PI3K isoform activity for α, β, γ or δ was determined using a PI3K human HTRF™ Assay Kit (Millipore, Billerica, Mass.) with modifications. All incubations were carried out at room temperature. Briefly, 0.5 μl of 40× inhibitor (in 100% DMSO) or 100% DMSO were added to each well of a 384-well black plate (Greiner Bio-One, Monroe, N.C.) containing 14.5 μl 1× reaction buffer/PIP2 (10 mM MgCl2, 5 mM DTT, 1.38 μM PIP2) mix with or without enzyme and incubated for 10 min. After the initial incubation, 5 μl/well of 400 μM ATP was added and incubated for an additional 30 minutes. Reaction was terminated by adding 5 μl/well stop solution (Millipore, Billerica, Mass.). Five microliters of detection mix (Millipore, Billerica, Mass.) were then added to each well and was incubated for 6-18 h in the dark. HRTF ratio was measured on a microplate reader (BMG Labtech., Germany) at an excitation wavelength of 337 nm and emission wavelengths of 665 and 620 nm with an integration time of […]. Data were analyzed using Graphpad Prism (Graphpad software; San Diego Calif.) for IC50 determination. Percent inhibition was calculated based on the values for the blank and enzyme controls. The results are provided below in Table 2 & 3.

[3] = molecular target: P110β (Homo sapiens, UniProt P42338); experiment: Fluorescent (HTRF) determination of PI3K enzyme activity, β isoform; format: biochemical
Source text: as §1, §2, §3

[4] = read-out: P110 δ/Pi3K δ IC 50 nM
[5] = read-out: P110 δ/ Pi3K δ IC 50 nM

P110β, sequence (P42338 whole entry, canonical isoform): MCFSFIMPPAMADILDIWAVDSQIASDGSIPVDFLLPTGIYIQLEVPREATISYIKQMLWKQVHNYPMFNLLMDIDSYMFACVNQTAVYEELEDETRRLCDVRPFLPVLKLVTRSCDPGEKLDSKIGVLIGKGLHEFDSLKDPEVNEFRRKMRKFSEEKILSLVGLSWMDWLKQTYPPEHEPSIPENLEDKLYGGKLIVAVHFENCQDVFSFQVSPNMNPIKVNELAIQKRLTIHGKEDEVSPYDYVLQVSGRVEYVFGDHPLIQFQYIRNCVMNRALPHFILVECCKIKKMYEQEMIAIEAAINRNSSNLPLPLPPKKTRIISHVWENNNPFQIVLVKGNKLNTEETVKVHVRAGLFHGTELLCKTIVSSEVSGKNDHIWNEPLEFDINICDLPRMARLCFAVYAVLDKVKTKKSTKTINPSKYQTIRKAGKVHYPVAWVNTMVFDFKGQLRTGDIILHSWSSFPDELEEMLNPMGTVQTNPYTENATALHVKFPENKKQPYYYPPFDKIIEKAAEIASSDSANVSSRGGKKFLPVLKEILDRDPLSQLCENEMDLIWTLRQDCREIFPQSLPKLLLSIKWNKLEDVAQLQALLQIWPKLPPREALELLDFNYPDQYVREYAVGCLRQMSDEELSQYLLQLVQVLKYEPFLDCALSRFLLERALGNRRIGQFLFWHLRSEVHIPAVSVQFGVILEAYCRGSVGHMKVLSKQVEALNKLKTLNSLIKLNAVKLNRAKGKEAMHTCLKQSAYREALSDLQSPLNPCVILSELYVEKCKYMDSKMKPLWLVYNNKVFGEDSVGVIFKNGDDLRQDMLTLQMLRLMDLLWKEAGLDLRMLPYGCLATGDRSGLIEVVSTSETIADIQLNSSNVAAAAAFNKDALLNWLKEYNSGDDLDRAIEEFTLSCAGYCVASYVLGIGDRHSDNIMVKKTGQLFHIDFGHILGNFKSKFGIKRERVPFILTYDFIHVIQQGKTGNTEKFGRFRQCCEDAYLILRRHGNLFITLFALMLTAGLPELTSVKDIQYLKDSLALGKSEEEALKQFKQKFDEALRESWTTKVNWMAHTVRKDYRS
P110β, sequence (P27986 whole entry partner, canonical isoform): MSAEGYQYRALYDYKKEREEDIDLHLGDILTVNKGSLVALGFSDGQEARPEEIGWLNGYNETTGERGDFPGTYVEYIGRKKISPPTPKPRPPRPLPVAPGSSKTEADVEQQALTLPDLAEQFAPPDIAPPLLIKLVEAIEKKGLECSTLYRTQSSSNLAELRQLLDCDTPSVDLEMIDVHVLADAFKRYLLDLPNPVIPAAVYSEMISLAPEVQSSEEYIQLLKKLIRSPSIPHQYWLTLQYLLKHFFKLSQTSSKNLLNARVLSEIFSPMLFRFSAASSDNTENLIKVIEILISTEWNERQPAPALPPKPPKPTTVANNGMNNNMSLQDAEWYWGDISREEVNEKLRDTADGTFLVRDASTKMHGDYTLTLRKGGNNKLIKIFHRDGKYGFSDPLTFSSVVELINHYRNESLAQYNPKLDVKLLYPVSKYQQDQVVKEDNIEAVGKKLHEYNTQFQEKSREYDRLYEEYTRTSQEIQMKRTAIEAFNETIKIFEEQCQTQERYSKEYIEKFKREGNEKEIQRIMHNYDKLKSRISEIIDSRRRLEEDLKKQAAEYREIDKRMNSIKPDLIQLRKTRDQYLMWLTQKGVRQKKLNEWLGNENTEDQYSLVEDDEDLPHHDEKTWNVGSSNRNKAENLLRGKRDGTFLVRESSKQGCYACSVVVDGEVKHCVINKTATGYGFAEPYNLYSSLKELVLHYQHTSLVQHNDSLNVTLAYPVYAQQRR
P110 δ/Pi3K δ, sequence (O00329 whole entry, canonical isoform): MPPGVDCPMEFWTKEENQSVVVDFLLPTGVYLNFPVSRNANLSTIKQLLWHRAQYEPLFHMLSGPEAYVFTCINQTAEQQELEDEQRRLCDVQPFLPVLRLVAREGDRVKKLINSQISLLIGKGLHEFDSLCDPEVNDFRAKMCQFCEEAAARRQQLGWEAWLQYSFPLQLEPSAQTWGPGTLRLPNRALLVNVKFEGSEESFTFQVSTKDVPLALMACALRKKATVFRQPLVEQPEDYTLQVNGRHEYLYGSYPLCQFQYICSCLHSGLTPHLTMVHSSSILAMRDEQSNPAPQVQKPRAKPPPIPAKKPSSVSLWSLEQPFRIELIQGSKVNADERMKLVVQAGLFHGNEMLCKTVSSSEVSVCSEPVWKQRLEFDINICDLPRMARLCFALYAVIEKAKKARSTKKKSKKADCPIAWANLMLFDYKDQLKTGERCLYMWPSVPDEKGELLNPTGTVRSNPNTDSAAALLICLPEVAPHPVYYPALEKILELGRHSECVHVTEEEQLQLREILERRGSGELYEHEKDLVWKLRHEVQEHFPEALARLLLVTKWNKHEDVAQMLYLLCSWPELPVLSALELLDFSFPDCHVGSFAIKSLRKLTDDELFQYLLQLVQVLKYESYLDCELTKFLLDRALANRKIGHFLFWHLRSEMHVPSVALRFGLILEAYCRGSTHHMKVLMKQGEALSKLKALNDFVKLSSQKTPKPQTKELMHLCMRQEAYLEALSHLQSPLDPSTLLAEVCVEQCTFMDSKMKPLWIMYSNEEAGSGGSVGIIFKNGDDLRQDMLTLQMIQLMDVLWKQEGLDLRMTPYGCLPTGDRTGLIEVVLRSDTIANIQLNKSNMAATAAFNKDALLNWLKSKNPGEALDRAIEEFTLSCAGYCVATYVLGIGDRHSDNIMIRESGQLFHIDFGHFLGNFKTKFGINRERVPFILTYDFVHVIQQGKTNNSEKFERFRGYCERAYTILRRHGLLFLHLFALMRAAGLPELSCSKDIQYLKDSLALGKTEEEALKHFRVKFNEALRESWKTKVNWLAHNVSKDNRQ
P110 δ/Pi3K δ, sequence (P27986 whole entry partner, canonical isoform): as the sequence (P27986 whole entry partner, canonical isoform) above
P110α, sequence (P42336 whole entry, canonical isoform): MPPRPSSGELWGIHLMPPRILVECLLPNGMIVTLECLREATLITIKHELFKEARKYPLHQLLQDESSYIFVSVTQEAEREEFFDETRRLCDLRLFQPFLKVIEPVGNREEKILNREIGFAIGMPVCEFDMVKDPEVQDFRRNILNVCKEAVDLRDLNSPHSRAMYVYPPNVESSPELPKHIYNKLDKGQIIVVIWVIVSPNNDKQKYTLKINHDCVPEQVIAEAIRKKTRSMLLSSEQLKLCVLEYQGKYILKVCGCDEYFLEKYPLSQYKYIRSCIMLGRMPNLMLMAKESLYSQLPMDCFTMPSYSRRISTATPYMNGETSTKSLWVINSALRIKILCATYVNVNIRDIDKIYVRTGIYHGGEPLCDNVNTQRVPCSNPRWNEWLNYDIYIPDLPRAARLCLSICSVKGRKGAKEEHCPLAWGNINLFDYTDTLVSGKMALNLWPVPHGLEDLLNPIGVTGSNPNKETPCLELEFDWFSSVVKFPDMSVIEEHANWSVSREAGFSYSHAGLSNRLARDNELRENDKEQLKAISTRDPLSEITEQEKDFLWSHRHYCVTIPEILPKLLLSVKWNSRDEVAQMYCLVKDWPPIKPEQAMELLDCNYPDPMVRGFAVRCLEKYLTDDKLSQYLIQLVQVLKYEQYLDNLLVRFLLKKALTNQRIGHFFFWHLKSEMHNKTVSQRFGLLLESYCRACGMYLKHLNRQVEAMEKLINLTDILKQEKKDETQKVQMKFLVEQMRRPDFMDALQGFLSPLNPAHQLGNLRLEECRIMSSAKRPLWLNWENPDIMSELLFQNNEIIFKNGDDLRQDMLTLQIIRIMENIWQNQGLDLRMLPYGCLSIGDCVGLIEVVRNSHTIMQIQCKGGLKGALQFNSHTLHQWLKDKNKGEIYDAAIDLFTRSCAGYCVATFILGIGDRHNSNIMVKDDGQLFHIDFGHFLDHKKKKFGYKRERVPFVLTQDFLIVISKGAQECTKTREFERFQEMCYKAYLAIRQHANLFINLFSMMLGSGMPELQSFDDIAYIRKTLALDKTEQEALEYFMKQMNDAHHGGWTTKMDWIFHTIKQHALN
P110α, sequence (P27986 whole entry partner, canonical isoform): as the sequence (P27986 whole entry partner, canonical isoform) above

| SMILES | melting point | inhibition [1] | inhibition at 1 µM [2] | inhibition at 1 µM [3] | inhibition at 1 µM [1] | IC50 [1, 4] | IC50 [1, 5] | P110 δ/ Pi3K δ % inhibition* ([1]; @ 0.3 uM) | % inhibition (1 μM) P110β [3] | % inhibition (1 μM) P110β ([3]; 1 µM) |
| --- | --- | --- | --- | --- | --- | --- | --- | --- | --- | --- |
| Nc1ncnc2c1c(-c1cn[nH]c1)nn2Cc1oc2ccc(F)cc2c(=O)c1-c1ccccc1 [Example 125, 2-((4-amino-3-(1H-pyrazol-4-yl)-1H-pyrazolo[3,4-d]pyrimidin-1-yl)methyl)-6-fluoro-3-phenyl-4H-chromen-4-one] | 211 to 214 °C | < 50% | < 25% | < 25% | – | – | – | – | – | – |
| COc1ncc(-c2nn(C(C)c3oc4ccccc4c(=O)c3-c3cccc(F)c3)c3ncnc(N)c23)cn1 (stereo not shown) [Example 112, 2-(1-(4-amino-3-(2-methoxypyrimidin-5-yl)-1H-pyrazolo[3,4-d]pyrimidin-1-yl)ethyl)-3-(3-fluorophenyl)-4H-chromen-4-one] | 224 to 227 °C | < 50% | < 25% | < 25% | – | – | – | – | – | – |
| Nc1ncnc2c1ncn2Cc1oc2ccc(F)cc2c(=O)c1-c1cccc(F)c1 [Example 119, 2-((6-amino-9H-purin-9-yl)methyl)-6-fluoro-3-(3-fluorophenyl)-4H-chromen-4-one] | 180 to 183 °C | < 50% | < 25% | < 25% | – | – | – | – | – | – |
| COc1ccc(-c2nn(C(C)c3oc4ccccc4c(=O)c3-c3cccc(F)c3)c3ncnc(N)c23)cc1F (stereo not shown) [Example 84, 2-(1-(4-amino-3-(3-fluoro-4-methoxyphenyl)-1H-pyrazolo[3,4-d]pyrimidin-1-yl)ethyl)-3-(3-fluorophenyl)-4H-chromen-4-one] | 222 to 224 °C | 50 to 100% | < 25% | < 25% | – | – | < 250 nM | – | – | – |
| Cc1nc2cc(-c3nn(C(C)c4oc5ccccc5c(=O)c4-c4cccc(F)c4)c4ncnc(N)c34)ccc2[nH]1 (stereo not shown) [Example 115, 2-(1-(4-amino-3-(2-methyl-1H-benzo[d]imidazol-5-yl)-1H-pyrazolo[3,4-d]pyrimidin-1-yl)ethyl)-3-(3-fluorophenyl)-4H-chromen-4-one] | 154 to 156 °C | 50 to 100% | < 25% | < 25% | – | – | < 250 nM | – | – | – |
| COc1c(C)cc(-c2nn(C(C)c3oc4ccccc4c(=O)c3-c3cccc(F)c3)c3ncnc(N)c23)cc1C (stereo not shown) [Example 131, 2-(1-(4-amino-3-(4-methoxy-3,5-dimethylphenyl)-1H-pyrazolo[3,4-d]pyrimidin-1-yl)ethyl)-3-(3-fluorophenyl)-4H-chromen-4-one] | 234 to 236 °C | < 50% | 25 to 50% | < 25% | – | – | – | – | – | – |
| Cc1c[nH]c2cc(-c3nn(C(C)c4oc5ccccc5c(=O)c4-c4cccc(F)c4)c4ncnc(N)c34)ccc12 (stereo not shown) [Example 117, 2-(1-(4-amino-3-(3-methyl-1H-indol-6-yl)-1H-pyrazolo[3,4-d]pyrimidin-1-yl)ethyl)-3-(3-fluorophenyl)-4H-chromen-4-one] | 262 to 265 °C | – | – | – | – | – | – | ++ (++ is less than equal to 100% inhibition but more than equal to 50% at 1 μM) | + (+ is less than equal to 25% inhibition at 1 μM) | – |
| Cc1n[nH]c2cc(-c3nn([C@H](C)c4oc5ccccc5c(=O)c4-c4cccc(F)c4)c4ncnc(N)c34)ccc12 (single isomer, unassigned) [Example 129, (−)-2-(1-(4-amino-3-(3-methyl-1H-indazol-6-yl)-1H-pyrazolo[3,4-d]pyrimidin-1-yl)ethyl)-3-(3-fluorophenyl)-4H-chromen-4-one] | 157 to 160 °C | – | – | – | – | – | > 500 nM | – | – | ++ (++ is less than equal to 50% inhibition but more than equal to 25% at 1 μM) |
| CC(c1oc2ccccc2c(=O)c1-c1cccc(F)c1)n1nc(-c2ccc3c(c2)OCCO3)c2c(N)ncnc21 (stereo not shown) [Example 133, 2-(1-(4-amino-3-(2,3-dihydrobenzo[b][1,4]dioxin-6-yl)-1H-pyrazolo[3,4-d]pyrimidin-1-yl)ethyl)-3-(3-fluorophenyl)-4H-chromen-4-one] | 225 to 226 °C | < 50% | < 25% | 50 to 100% | – | – | – | – | – | – |
| CC(=O)c1ccc(-c2nn(C(C)c3oc4ccccc4c(=O)c3-c3cccc(F)c3)c3ncnc(N)c23)cc1 (stereo not shown) [Example 146, 2-(1-(3-(4-acetylphenyl)-4-amino-1H-pyrazolo[3,4-d]pyrimidin-1-yl)ethyl)-3-(3-fluorophenyl)-4H-chromen-4-one] | 218 to 221 °C | 50 to 100% | – | < 25% | – | – | – | – | – | – |
| O=c1c(-c2ccccc2)c(CNc2ncnc3[nH]cnc23)oc2ccc(F)cc12 [Example 123, 2-((9H-purin-6-ylamino)methyl)-6-fluoro-3-phenyl-4H-chromen-4-one] | 183 to 186 °C | < 50% | – | < 25% | – | – | – | – | – | – |

The next lines start with results.

| melting point | inhibition [1] | inhibition at 1 µM [2] | inhibition at 1 µM [3] | inhibition at 1 µM [1] | IC50 [1, 4] | IC50 [1, 5] | SMILES | P110 δ/ Pi3K δ % inhibition* ([1]; @ 0.3 uM) | % inhibition (1 μM) P110β [3] | % inhibition (1 μM) P110β ([3]; 1 µM) |
| --- | --- | --- | --- | --- | --- | --- | --- | --- | --- | --- |
| 224 to 227 °C | < 50% | < 25% | < 25% | – | – | – | COc1cc(OC)cc(-c2nn(C(C)c3oc4ccccc4c(=O)c3-c3cccc(F)c3)c3ncnc(N)c23)c1 (stereo not shown) [Example 130, 2-(1-(4-amino-3-(3,5-dimethoxyphenyl)-1H-pyrazolo[3,4-d]pyrimidin-1-yl)ethyl)-3-(3-fluorophenyl)-4H-chromen-4-one] | – | – | – |
| 254 to 257 °C | – | < 25% | < 25% | 50 to 100% | < 250 nM | – | CC(c1oc2ccccc2c(=O)c1-c1ccccc1)n1cnc2c(N)ncnc21 (stereo not shown) [Example 23, 2-(1-(6-Amino-9H-purin-9-yl)ethyl)-3-phenyl-4H-chromen-4-one] | – | – | – |
| 234 to 236 °C | – | < 25% | < 25% | – | – | – | O=c1c(-c2ccccc2)c(Cn2cnc3c(Cl)ncnc32)oc2ccc(Br)cc12 [Example 10, 6-Bromo-2-[(6-chloro-9H-purin-9-yl)methyl]-3-phenyl-4H-chromen-4-one] | – | – | – |
| 207 to 209 °C | < 50% | < 25% | 25 to 50% | – | – | – | Nc1ncnc2c1ncn2Cc1oc2ccc(F)cc2c(=O)c1-c1ccccc1 [Example 118, 2-((6-amino-9H-purin-9-yl)methyl)-6-fluoro-3-phenyl-4H-chromen-4-one] | – | – | – |
| 196 to 198 °C | – | < 25% | 25 to 50% | 50 to 100% | < 250 nM | – | C[C@H](Nc1ncnc2[nH]cnc12)c1oc2ccc(F)cc2c(=O)c1-c1ccccc1 [Example 57, (S)-2-(1-(9H-purin-6-ylamino)ethyl)-6-fluoro-3-phenyl-4H-chromen-4-one] | – | – | – |
| – | – | < 25% | < 25% | – | – | – | COc1cc(F)cc(-c2nn(Cc3oc4ccc(F)cc4c(=O)c3-c3cccc(F)c3)c3ncnc(N)c23)c1 [Example 120, 2-((4-amino-3-(3-fluoro-5-methoxyphenyl)-1H-pyrazolo[3,4-d]pyrimidin-1-yl)methyl)-6-fluoro-3-(3-fluorophenyl)-4H-chromen-4-one] | – | – | – |
| 207 to 209 °C | – | < 25% | < 25% | < 50% | < 250 nM | – | Nc1ncnc2c1ncn2Cc1oc2ccc(Br)cc2c(=O)c1-c1ccccc1 [Example 1, 2-[(6-Amino-9H-purin-9-yl)methyl]-6-bromo-3-phenyl-4H-chromen-4-one] | – | – | – |
| 226 to 229 °C | < 50% | – | < 25% | – | – | – | CC(c1oc2ccccc2c(=O)c1-c1cccc(F)c1)n1nc(-c2ccc(Cl)s2)c2c(N)ncnc21 (stereo not shown) [Example 152, 2-(1-(4-amino-3-(5-chlorothiophen-2-yl)-1H-pyrazolo[3,4-d]pyrimidin-1-yl)ethyl)-3-(3-fluorophenyl)-4H-chromen-4-one] | – | – | – |
| 192 to 195 °C | 50 to 100% | – | < 25% | – | – | – | CC(c1oc2ccccc2c(=O)c1-c1cccc(F)c1)n1nc(-c2csc(C=O)c2)c2c(N)ncnc21 (stereo not shown) [Example 113, 4-(4-amino-1-(1-(3-(3-fluorophenyl)-4-oxo-4H-chromen-2-yl)ethyl)-1H-pyrazolo[3,4-d]pyrimidin-3-yl)thiophene-2-carbaldehyde] | – | – | – |
| 266 to 268 °C | < 50% | – | 25 to 50% | – | – | – | Cc1cc(-c2nn(C(C)c3oc4ccccc4c(=O)c3-c3cccc(F)c3)c3ncnc(N)c23)ccn1 (stereo not shown) [Example 135, 2-(1-(4-amino-3-(2-methylpyridin-4-yl)-1H-pyrazolo[3,4-d]pyrimidin-1-yl)ethyl)-3-(3-fluorophenyl)-4H-chromen-4-one] | – | – | – |
